A short description of data set [1]: Permeability (transport study) across ECV304 monoculture model. The note with it: human.
Procedure: (§2) For the generation of mono-culture models, ECV304 or bEnd3 cells were seeded on the upper surface of the membrane in Polyester Transwell inserts (0.4 μM pore size, 6.5 mm diameter, 24 well, Costar, Kennebunk, ME, USA) at a density of 5 × 10^4 and 8 × 10^4/cm^2, respectively. […] The culture medium (0.25 ml in the apical compartment and 1 ml in the basolateral compartment to avoid hydrostatic pressure) was replenished every day.
(§3) On day 5~7 after seeding cells, the TEER across cell layers was measured before initiating the transport study by replacing the medium in the apical compartment with tested compounds dissolved in HBSS. […] At indicated time points of 15, 30, 45 and 60 min, the inserts were transferred into new wells containing fresh HBSS to maintain sink conditions. […] Other compounds were analyzed by liquid chromatography tandem mass spectrometer (LC-MS/MS).
(§4) The cleared volume was determined by dividing the compound amount in basolateral compartment by the compound concentration in apical compartment. The slope of the cumulative clearance versus time was calculated by linear regression analysis and denoted as permeability coefficient (PEall) × surface area of the membrane insert (S, 0.33 cm^2). The PEblank of blank inserts was included to calculate the PEcell for cell layers themselves using the following equation: 1/PEcellS = 1/PEallS—1/PEblankS.
Data set [2] is described as follows: Permeability (transport study) across bEnd3 monoculture model. The note with it: mouse.
Procedure: as §2, §3, §4
Data set [3] concerns ECV304 co-cultured with rat glioma C6 cells. As to the kind of experiment: Permeability to Lucifer yellow in ECV304 co-culture model with C6 cells. Type of data set: in vitro ADME, human. The note with it: Lucifer yellow 50 μM. As for the experimental part: (§1) For the generation of mono-culture models, ECV304 or bEnd3 cells were seeded on the upper surface of the membrane in Polyester Transwell inserts ([…] pore size, 6.5 mm diameter, 24 well, Costar, Kennebunk, ME, USA) at a density of 5 × 10^4 and 8 × 10^4/cm^2, respectively. For the generation of co-culture models, C6 cells were seeded on the lower surface of the membrane at a density of 5 × 10^4/cm^2 and incubated for 2 h to allow cell attachment before the seeding of ECV304 or bEnd3 cells.

Data set [4] concerns ECV304 cell layers. The data set can be described thus: Permeability (transport study) across ECV304 monoculture model.
Procedure: as §2, §3, §4
For data set [5], the system named is bEnd3 co-cultured with rat glioma C6 cells. As to the kind of experiment: Permeability to Lucifer yellow in bEnd3 co-culture model with C6 cells. It is filed as in vitro ADME, mouse. The note with it: Lucifer yellow 50 μM. How it is done:
as §1

The test system of another data set is bEnd3 cell layers. The data set can be described thus: Permeability (transport study) across bEnd3 monoculture model.
In data set [6] the test system is ECV304 cell layers. The note with it: cited from earlier work.

Procedure for bEnd3 cell layers: as §2, §3, §4

As a reminder, the Papp is the rate of passage across a membrane or cell layer, normalised by area and donor concentration. Read a low Papp as slow passage. As to `C=C[C@H]1C[N@@]2CC[C@H]1C[C@@H]2[C@@H](O)c1ccnc2ccc(OC)cc12` [Quinidine, quinidine], the Papp at 60 min in data set [1] was found to be 24.5 ± 1.61 ×10⁻⁶ cm/s; in data set [2], 26.8 ± 0.68 ×10⁻⁶ cm/s.

As to Lucifer yellow, the results for the “increase of permeability to Lucifer yellow, co-culture with C6 cells versus monoculture” value in data set [3] and in data set [5] were 2.2 fold and 2 fold, respectively. Besides, the “permeability to Lucifer yellow” value in the data set on ECV304 cell layers [4] (ECV304 monoculture model, Lucifer yellow 50 μM, day 5~7 after seeding, mean ± SD, n = 3) was 11.17 ± 0.87 × 10^−6 cm/s; with bEnd3 cell layers (bEnd3 monoculture model, Lucifer yellow 50 μM, day 5~7 after seeding, mean ± SD, n = 3), 23.68 ± 1.71 × 10^−6 cm/s. The “permeability of Lucifer yellow in ECV304 monolayer, published before” value in the data set with ECV304 cell layers [6] was 1.04e-05 cm/s.

For the molecule `COC(=O)c1ccccc1-c1c2ccc(=N)cc-2oc2cc(N)ccc12` [R123, Rhodamine 123], the Papp at 60 min in data set [1] was 12.4 ± 0.91 ×10⁻⁶ cm/s; in data set [2] it was 22.3 ± 2.8 ×10⁻⁶ cm/s.

Turning to `CC(C)NCC(O)COc1cccc2ccccc12` (stereo not drawn) [Propranolol, propranolol], the results for the Papp at 60 min in data set [1] and in data set [2] were 28.4 ± 1.25 ×10⁻⁶ cm/s and 29.7 ± 1.44 ×10⁻⁶ cm/s, respectively. Moreover, the “permeability ratio of transcellular marker propranolol to paracellular marker Lucifer yellow” value is given as 2.5 in the data set with ECV304 cell layers [4] (ECV304 cells, monoculture) and 1.2 in the data set with bEnd3 cell layers (bEnd3 cells, monoculture).

Take `C[C@H]1O[C@@H](O[C@H]2[C@@H](O)C[C@H](O[C@H]3[C@@H](O)C[C@H](O[C@H]4CC[C@@]5(C)[C@H](CC[C@@H]6[C@@H]5C[C@@H](O)[C@]5(C)[C@@H](C7=CC(=O)OC7)CC[C@]65O)C4)O[C@@H]3C)O[C@@H]2C)C[C@H](O)[C@@H]1O` [Digoxin, digoxin]: the figures for the Papp at 60 min in data set [1] and in data set [2] were 3.29 ± 0.16 ×10⁻⁶ cm/s and 6.24 ± 0.27 ×10⁻⁶ cm/s, respectively.
